IC50 data for 25 molecules are collected here from patent publication US8716312B2, “Inhibitors of diacylglycerol acyltransferase” (Merck Sharp & Dohme Corporation, priority 2008, dated 2014).

The assay concerns the target T1, human DGAT1 enzyme (Homo sapiens, UniProt O75907).
T1 sequence (O75907 1-488): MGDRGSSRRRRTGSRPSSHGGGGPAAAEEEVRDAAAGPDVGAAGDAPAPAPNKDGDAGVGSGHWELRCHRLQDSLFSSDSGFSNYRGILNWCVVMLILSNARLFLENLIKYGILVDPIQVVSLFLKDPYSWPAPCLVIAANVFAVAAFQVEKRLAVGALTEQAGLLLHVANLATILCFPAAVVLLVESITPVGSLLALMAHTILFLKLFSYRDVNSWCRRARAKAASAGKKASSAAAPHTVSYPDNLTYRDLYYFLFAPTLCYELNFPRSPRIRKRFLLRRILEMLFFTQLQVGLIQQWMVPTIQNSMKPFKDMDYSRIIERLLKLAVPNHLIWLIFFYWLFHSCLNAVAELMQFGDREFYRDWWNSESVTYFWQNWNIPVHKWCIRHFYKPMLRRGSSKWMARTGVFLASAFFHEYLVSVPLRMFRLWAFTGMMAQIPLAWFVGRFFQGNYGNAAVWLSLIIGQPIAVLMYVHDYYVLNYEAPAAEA
Description: in vitro DGAT1 inhibition assay (microsomes, [14C]-palmitoyl-CoA, SPA beads).
Description: The in vitro assay to identify DGAT1 inhibitors uses human DGAT1 enzyme expressed in Sf9 insect cells prepared as microsomes. The reaction is initiated by the addition of the combined substrates 1,2-dioleoyl-sn-glycerol and [^14C]-palmitoyl-Co A and incubated with test compounds and microsomal membranes for 2 hours at room temperature. The assay is stopped by adding 0.5 mg wheat germ agglutinin beads in assay buffer with 1% Brij-35 and 1% 3-cholamidopropyldimethyl-ammonio-1-propane sulfonate. Plates are sealed with TopSeal and incubated for 18 hours to allow the radioactive triglyceride product to come into proximity with the bead. Plates are read on a TopCount instrument.
Percent inhibition was calculated as the percent of (test compound inhibition minus non-specific binding) relative to (total binding minus non-specific binding). IC50 values were determined by curve fitting the data to a Sigmoidal dose-response in GraphPad Prism utilizing the following equation: Y=A+(B−A)/(1+10^((Log IC50−X))), where A and B are the bottom and top of the curve (highest and lowest inhibition), respectively, and X is the logarithm of concentration.
Molecule `O=C(Nc1ccc(N2CCN(C(=O)[C@H](O)C3CCCCC3)CC2)nc1)c1oc(N2CCC(c3cccc(Cl)c3)C2)nc1C(F)(F)F` (stereo partly drawn) [Compound 213, N-(6-(4-((R)-2-cyclohexyl-2-hydroxyacetyl)piperazin-1-yl)pyridin-3-yl)-2-(3-(3-chlorophenyl)pyrrolidin-1-yl)-4-(trifluoromethyl)oxazole-5-carboxamide] displayed an IC50 of 11 to 100 nM.
The value for `O=C(Nc1ccc(N2CCN(C(=O)Cc3ccccc3F)CC2)nc1)c1oc(N2CCC(c3ccccc3)CC2)nc1C(F)(F)F` [Compound 225] was 11 to 100 nM; that for `O=C(Nc1ccc(N2CCN(C(=O)C3NCCc4ccccc43)CC2)nc1)c1oc(N2CCC(c3ccccc3)CC2)nc1C(F)(F)F` (stereo not shown) [Compound 242, 2-(4-phenylpiperidin-1-yl)-N-(6-(4-(1,2,3,4-tetrahydroisoquinoline-1-carbonyl)piperazin-1-yl)pyridin-3-yl)-4-(trifluoromethyl)oxazole-5-carboxamide] was 101 to 500 nM.
The same measure for `O=C(Nc1ccc(N2CCN(c3nc4ccccc4[nH]3)CC2)nc1)c1oc(N2CCC(c3ccccc3)CC2)nc1C(F)(F)F` [Compound 237, N-(6-(4-(1H-benzo[d]imidazol-2-yl)piperazin-1-yl)pyridin-3-yl)-2-(4-phenylpiperidin-1-yl)-4-(trifluoromethyl)oxazole-5-carboxamide]: 101 to 500 nM; for `O=C(O)c1cccc(COC2CCN(c3ccc(NC(=O)c4oc(N5CCC(c6ccccc6)CC5)nc4C(F)(F)F)cn3)CC2)c1` [Compound 256, 3-((1-(5-(2-(4-phenylpiperidin-1-yl)-4-(trifluoromethyl)oxazole-5-carboxamido)pyridin-2-yl)piperidin-4-yloxy)methyl)benzoic acid]: 11 to 100 nM.
The value for `O=C(Nc1ccc(N2CCN(C(=O)C3Cc4ccccc4N3)CC2)nc1)c1oc(N2CCC(c3ccccc3)CC2)nc1C(F)(F)F` (stereo not shown) [Compound 240, N-(6-(4-(indoline-2-carbonyl)piperazin-1-yl)pyridin-3-yl)-2-(4-phenylpiperidin-1-yl)-4-(trifluoromethyl)oxazole-5-carboxamide] was 101 to 500 nM; that for `CC1CCCN(c2nc(C(F)(F)F)c(C(=O)Nc3ccc(N4CCCN(C(=O)[C@H]5CC[C@@H](C(=O)O)CC5)CC4)nc3)o2)C1` (stereo partly shown) [Compound 185, (1s,4s)-4-(4-(5-(2-(3-Methylpiperidin-1-yl)-4-(trifluoromethyl)oxazole-5-carboxamido)pyridin-2-yl)-1,4-diazepane-1-carbonyl)cyclohexanecarboxylic acid] was 101 to 500 nM.
Molecule `O=C(Nc1ccc(N2CCN(C(=O)C3CCc4ccccc4N3)CC2)nc1)c1oc(N2CCC(c3ccccc3)CC2)nc1C(F)(F)F` (stereo not shown) [Compound 241, 2-(4-phenylpiperidin-1-yl)-N-(6-(4-(1,2,3,4-tetrahydroquinoline-2-carbonyl)piperazin-1-yl)pyridin-3-yl)-4-(trifluoromethyl)oxazole-5-carboxamide] returned a concentration for half-maximal inhibition (IC50) of 101 to 500 nM.
The same measure for `CCOC(=O)c1nnc2n1CCN(c1ccc(NC(=O)c3oc(N4CCC(c5ccccc5)CC4)nc3C(F)(F)F)cn1)C2` [Compound 216, Ethyl 5,6,7,8-tetrahydro-7-[5-[[[2-(4-phenyl-1-piperidinyl)-4-(trifluoromethyl)-5-oxazolyl]carbonyl]amino]-2-pyridinyl]-1,2,4-triazolo[4,3-a]pyrazine-3-carboxylate]: 101 to 500 nM; for `N#C/N=C(/N1CCCC1)N1CCN(c2ccc(NC(=O)c3oc(N4CCC(c5ccccc5)CC4)nc3C(F)(F)F)cn2)CC1` [Compound 182, (Z)—N-(6-(4-((cyanoimino)(pyrrolidin-1-yl)methyl)piperazin-1-yl)pyridin-3-yl)-2-(4-phenylpiperidin-1-yl)-4-(trifluoromethyl)oxazole-5-carboxamide]: 101 to 500 nM; for `CC1CCCN(c2nc(C(F)(F)F)c(C(=O)Nc3ccc(N4CCCN(C(=O)c5cccc(C(=O)O)c5)CC4)nc3)o2)C1` (stereo not shown) [Compound 190, 3-(4-(5-(2-(3-methylpiperidin-1-yl)-4-(trifluoromethyl)oxazole-5-carboxamido)pyridin-2-yl)-1,4-diazepane-1-carbonyl)benzoic acid]: 101 to 500 nM.
The value for `O=C(Nc1ccc(N2CCN(C(=O)[C@H](O)c3ccccc3)CC2)nc1)c1oc(N2CCC(c3ccccc3)CC2)nc1C(F)(F)F` [Compound 200, (R)—N-(6-(4-(2-hydroxy-2-phenylacetyl)piperazin-1-yl)pyridin-3-yl)-2-(4-phenylpiperidin-1-yl)-4-(trifluoromethyl)oxazole-5-carboxamide] was 11 to 100 nM; that for `O=C(O)c1cccc(OCC2CCN(c3ccc(NC(=O)c4oc(N5CCC(c6ccccc6)CC5)nc4C(F)(F)F)cn3)CC2)c1` [Compound 264, 3-((1-(5-(2-(4-phenylpiperidin-1-yl)-4-(trifluoromethyl)oxazole-5-carboxamido)pyridin-2-yl)piperidin-4-yl)methoxy)benzoic acid] was 11 to 100 nM.
The same measure for `CC1CCCN(c2nc(C(F)(F)F)c(C(=O)Nc3ccc(N4CCN(C(=O)[C@H](O)C5CCCCC5)CC4)nc3)o2)C1` (stereo partly drawn) [Compound 196, N-(6-(4-((R)-2-cyclohexyl-2-hydroxyacetyl)piperazin-1-yl)pyridin-3-yl)-2-(3-methylpiperidin-1-yl)-4-(trifluoromethyl)oxazole-5-carboxamide]: 11 to 100 nM.
Molecule `CC1CCCN(c2nc(C(F)(F)F)c(C(=O)Nc3ccc(N4CC(NC(=O)Nc5ccccc5F)C4)nc3)o2)C1` (stereo not shown) [Compound 221, N-(6-(3-(3-(2-fluorophenyl)ureido)azetidin-1-yl)pyridin-3-yl)-2-(3-methylpiperidin-1-yl)-4-(trifluoromethyl)oxazole-5-carboxamide] gave an IC50 of 101 to 500 nM.
With `CC1CCCN(c2nc(C(F)(F)F)c(C(=O)Nc3ccc(N4CCN(c5ccccn5)CC4)nc3)o2)C1` (stereo not shown) [Compound 169, 2-(3-methylpiperidin-1-yl)-N-(6-(4-(pyridin-2-yl)piperazin-1-yl)pyridin-3-yl)-4-(trifluoromethyl)oxazole-5-carboxamide], the IC50 is 11 to 100 nM.
The value for `O=C(Nc1ccc(N2CCN(C(=O)Cc3ccccc3O)CC2)nc1)c1oc(N2CCC(c3ccccc3)CC2)nc1C(F)(F)F` [Compound 226, N-(6-(4-(2-(2-hydroxyphenyl)acetyl)piperazin-1-yl)pyridin-3-yl)-2-(4-phenylpiperidin-1-yl)-4-(trifluoromethyl)oxazole-5-carboxamide] was 101 to 500 nM; that for `O=C(O)c1ccc(F)c(OCC2CCN(c3ccc(NC(=O)c4oc(N5CCC(c6ccccc6)CC5)nc4C(F)(F)F)cn3)CC2)c1` [Compound 268, 4-fluoro-3-((1-(5-(2-(4-phenylpiperidin-1-yl)-4-(trifluoromethyl)oxazole-5-carboxamido)pyridin-2-yl)piperidin-4-yl)methoxy)benzoic acid] was 11 to 100 nM; that for `O=C(Nc1ccc(N2CCN(C(=O)[C@H](O)c3ccccc3)CC2)nc1)c1oc(N2CCC(c3cccc(Cl)c3)C2)nc1C(F)(F)F` (stereo partly drawn) [Compound 207, 2-(3-(3-chlorophenyl)pyrrolidin-1-yl)-N-(6-(4-((R)-2-hydroxy-2-phenylacetyl)piperazin-1-yl)pyridin-3-yl)-4-(trifluoromethyl)oxazole-5-carboxamide] was 11 to 100 nM.
The value for `CC1CCCN(c2nc(C(F)(F)F)c(C(=O)Nc3ccc(N4CCN(c5ccccc5O)CC4)nc3)o2)C1` (stereo not shown) [Compound 171, N-(6-(4-(2-hydroxyphenyl)piperazin-1-yl)pyridin-3-yl)-2-(3-methylpiperidin-1-yl)-4-(trifluoromethyl)oxazole-5-carboxamide] was 11 to 100 nM; that for `O=C(Nc1ccc(N2CCCN(C(=O)C(O)c3cc(F)cc(F)c3)CC2)nc1)c1oc(N2CCC(c3ccccc3)CC2)nc1C(F)(F)F` (stereo not shown) [Compound 202, N-(6-(4-(2-(3,5-difluorophenyl)-2-hydroxyacetyl)-1,4-diazepan-1-yl)pyridin-3-yl)-2-(4-phenylpiperidin-1-yl)-4-(trifluoromethyl)oxazole-5-carboxamide] was 11 to 100 nM.
The same measure for `O=C(Nc1ccc(N2CCN(C(=O)Nc3ccccc3F)C(=O)C2)nc1)c1oc(N2CCC(c3ccccc3)CC2)nc1C(F)(F)F` [Compound 248, N-(6-(4-(2-fluorophenylcarbamoyl)-3-oxopiperazin-1-yl)pyridin-3-yl)-2-(4-phenylpiperidin-1-yl)-4-(trifluoromethyl)oxazole-5-carboxamide]: 101 to 500 nM; for `CC1CCCN(c2nc(C(F)(F)F)c(C(=O)Nc3ccc(N4CCN(C(=O)C(O)C(F)(F)F)CC4)nc3)o2)C1` (stereo not shown) [Compound 194, 2-(3-methylpiperidin-1-yl)-N-(6-(4-(3,3,3-trifluoro-2-hydroxypropanoyl)piperazin-1-yl)pyridin-3-yl)-4-(trifluoromethyl)oxazole-5-carboxamide]: 11 to 100 nM; for `O=C(Nc1ccc(N2CCN(c3nc4ccccc4o3)CC2)nc1)c1oc(N2CCC(c3ccccc3)CC2)nc1C(F)(F)F` [Compound 236]: 101 to 500 nM.
The molecule `CC1CCCN(c2nc(C(F)(F)F)c(C(=O)Nc3ccc(NC4CN(C(=O)Nc5ccccc5F)C4)nc3)o2)C1` (stereo not shown) [Compound 223, N-(6-(1-(2-fluorophenylcarbamoyl)azetidin-3-ylamino)pyridin-3-yl)-2-(3-methylpiperidin-1-yl)-4-(trifluoromethyl)oxazole-5-carboxamide] displayed an IC50 of 101 to 500 nM.
